Reference: patent US8927717B1, “Thiochromeno[2,3-c]quinolin-12-one derivatives, preparation method and application thereof” (National Defense Medical Center, priority 2014, dated 2015)

What was measured:
Assay type in all cases: cell-based
SNB-75 = tested on: SNB-75
DU-145 = tested on: DU-145
OVCAR-8 = tested on: OVCAR-8
NCI-H226 = tested on: NCI-H226
SNB-19 = tested on: SNB-19
SK-MEL-28 = tested on: SK-MEL-28
U251 = tested on: U251
KM12 = experiment: cells
NCI-H460 = tested on: NCI-H460
RXF 393 = tested on: RXF 393
SK-OV-3 = tested on: SK-OV-3
SN12C = tested on: SN12C
LOX IMVI = tested on: LOX IMVI
MDA-MB-231/ATCC = tested on: MDA-MB-231/ATCC
HL-60(TB) = tested on: HL-60(TB)
COLO 205 = tested on: COLO 205
M14 = tested on: M14
SF-295 = tested on: SF-295
NCI/ADR-RES = conditions: NCI/ADR-RES, five dose
[1] = CNS cancer, 10^−5 molar, 48 hours, SRB
[2] = Homo sapiens, SNB-75, five dose
[3] = Ovarian cancer, 10^−5 molar, 48 hours, SRB
[4] = Homo sapiens, NCI-H226, five dose
[5] = Non-small cell lung cancer, 10^−5 molar, 48 hours, SRB
[6] = Homo sapiens, SNB-19, five dose
[7] = Homo sapiens, SK-MEL-28, five dose
[8] = Melanoma, 10^−5 molar, 48 hours, SRB
[9] = Homo sapiens, U-251, U251, five dose
[10] = Colon cancer, 10^−5 molar, 48 hours, SRB
[11] = Homo sapiens, NCI-H460, five dose
[12] = Renal cancer, 10^−5 molar, 48 hours, SRB
[13] = Homo sapiens, LOX IMVI, five dose
[14] = Homo sapiens, COLO 205, five dose
[15] = Homo sapiens, SF-295, five dose

SMILES: CCNc1nc2ccccc2c2c(=O)c3cc(Cl)ccc3sc12 [Compound N2, 10-Chloro-6-ethylamino-12H-thiochromeno[2,3-c]quinolin-12-one]
- Growth percent SNB-75 (SNB-75; [1]): 12.12%
- GI50 (SNB-75; [2]): 4.96 µM
- LC50 (SNB-75; [2]): 60.2 µM
- TGI (SNB-75; SNB-75, five dose): 22.00 µM
- TGI (DU-145; DU-145, five dose): >100 µM
- GI50 (DU-145; Homo sapiens, DU-145, five dose): > 100 µM
- CC50 (DU-145; Homo sapiens, DU-145, five dose, read-out: LC50 (the source's name)): > 100 µM
- Growth percent DU-145 (DU-145; Prostate cancer, 10^−5 molar, 48 hours, SRB): 87.67%
- GI50 (OVCAR-8; Homo sapiens, OVCAR-8, five dose): 17.7 µM
- CC50 (OVCAR-8; Homo sapiens, OVCAR-8, five dose, read-out: LC50 (the source's name)): > 100 µM
- TGI (OVCAR-8; OVCAR-8, five dose): >100 µM
- Growth percent OVCAR-8 (OVCAR-8; [3]): 62.54%
- GI50 (NCI-H226; [4]): 33.2 µM
- LC50 (concentration giving 50% net cell kill) (NCI-H226; [4]): > 100 µM
- TGI (NCI-H226; NCI-H226, five dose): >100 µM
- Growth percent NCI-H226 (NCI-H226; [5]): 41.31%
- Growth percent SNB-19 (SNB-19; [1]): 84.19%
- GI50 (SNB-19; [6]): 26.6 µM
- LC50 (concentration killing 50% of cells) (SNB-19; [6]): > 100 µM
- TGI (SNB-19; SNB-19, five dose): 81.10 µM
- GI50 (SK-MEL-28; [7]): > 100 µM
- LC50 (SK-MEL-28; [7]): > 100 µM
- Growth percent SK-MEL-28 (SK-MEL-28; [8]): 93.07%
- TGI (SK-MEL-28; SK-MEL-28, five dose): >100 µM
- Growth percent U251 (U251; [1]): 76.58%
- GI50 (U251; [9]): 16.9 µM
- LC50 (U251; [9]): > 100 µM
- TGI (U251; U251, five dose): 67.90 µM
- Growth percent KM12 (KM12; [10]): 85.79%
- GI50 (KM12; Homo sapiens, KM12, five dose): > 100 µM
- LC50 (KM12; Homo sapiens, KM12, five dose): > 100 µM
- TGI (KM12; KM12, five dose): >100 µM
- GI50 (NCI-H460; [11]): > 100 µM
- LC50 (NCI-H460; [11]): > 100 µM
- TGI (NCI-H460; NCI-H460, five dose): >100 µM
- Growth percent NCI-H460 (NCI-H460; [5]): 53.33%
- GI50 (RXF 393; Homo sapiens, RXF 393, five dose): 13.1 µM
- CC50 (RXF 393; Homo sapiens, RXF 393, five dose, read-out: LC50 (the source's name)): > 100 µM
- TGI (RXF 393; RXF 393, five dose): 44.6 µM
- Growth percent RXF 393 (RXF 393; [12]): 34.56%
- GI50 (SK-OV-3; Homo sapiens, SK-OV-3, five dose): 11.1 µM
- CC50 (SK-OV-3; Homo sapiens, SK-OV-3, five dose, read-out: LC50 (the source's name)): > 100 µM
- Growth percent SK-OV-3 (SK-OV-3; [3]): 28.90%
- TGI (SK-OV-3; SK-OV-3, five dose): 35.20 µM
- GI50 (SN12C; Homo sapiens, SN12C, five dose): 75.3 µM
- CC50 (SN12C; Homo sapiens, SN12C, five dose, read-out: LC50 (the source's name)): > 100 µM
- Growth percent SN12C (SN12C; [12]): 84.57%
- TGI (SN12C; SN12C, five dose): >100 µM
- GI50 (LOX IMVI; [13]): > 100 µM
- LC50 (LOX IMVI; [13]): > 100 µM
- TGI (LOX IMVI; LOX IMVI, five dose): >100 µM
- Growth percent LOX IMVI (LOX IMVI; [8]): 80.61%
- Growth percent MDA-MB-231/ATCC (MDA-MB-231/ATCC; Breast cancer, 10^−5 molar, 48 hours, SRB): 48.66%
- GI50 (MDA-MB-231/ATCC; Homo sapiens, MDA-MB-231/ATCC, five dose): 10.1 µM
- CC50 (MDA-MB-231/ATCC; Homo sapiens, MDA-MB-231/ATCC, five dose, read-out: LC50 (the source's name)): > 100 µM
- TGI (MDA-MB-231/ATCC; MDA-MB-231/ATCC, five dose): 65.5 µM
- TGI (HL-60(TB); HL-60(TB), five dose): >100 µM
- GI50 (HL-60(TB); Homo sapiens, HL-60(TB), five dose): > 100 µM
- CC50 (HL-60(TB); Homo sapiens, HL-60(TB), five dose, read-out: LC50 (the source's name)): > 100 µM
- Growth percent HL-60(TB) (HL-60(TB); Leukemia, 10^−5 molar, 48 hours, SRB): 103.33%
- TGI (COLO 205; COLO 205, five dose): >100 µM
- Growth percent COLO 205 (COLO 205; [10]): 82.36%
- GI50 (COLO 205; [14]): > 100 µM
- LC50 (COLO 205; [14]): > 100 µM
- GI50 (M14; Homo sapiens, M14, five dose): > 100 µM
- LC50 (M14; Homo sapiens, M14, five dose): > 100 µM
- TGI (M14; M14, five dose): >100 µM
- Growth percent M14 (M14; [8]): 91.72%
- Growth percent SF-295 (SF-295; [1]): 69.49%
- GI50 (SF-295; [15]): 12.2 µM
- LC50 (SF-295; [15]): > 100 µM
- TGI (SF-295; SF-295, five dose): 35.20 µM
- GI50 (NCI/ADR-RES; Homo sapiens): 33.5 µM
- CC50 (NCI/ADR-RES; Homo sapiens, read-out: LC50 (the source's name)): > 100 µM
- TGI (NCI/ADR-RES): >100 µM
